Test [1] in a line: In vitro cytotoxicity against […] V79-379A cells determined by MTT assay in the presence of air. Format: functional, cell-based. Conditions: Cricetulus griseus.
The nature of test [2]: In vitro cytotoxicity against hypoxic V79-379A cells determined by MTT assay in the presence of nitrogen. Conditions: Cricetulus griseus. Format: functional, cell-based.

For `COC1=CC(=O)c2c(c(COC(N)=O)cn2C)C1=O`, the values for the IC50 in test [1] and in test [2] were 3 µM and 0.04 µM, respectively.
On to `COC1=CC(=O)c2c(c(COC(=O)c3ccccc3F)c(C)n2C)C1=O`, for which the IC50 came to 164 µM in test [1] and 2 µM in test [2].
As to `COC1=CC(=O)c2c(c(Cc3cc(F)ccc3O)c(C)n2C)C1=O`, the IC50 was determined as 200 µM in test [1] and 110 µM in test [2].
For the compound `COC1=CC(=O)c2c(c(COC(=O)c3ccccc3)cn2C)C1=O`, the results for the IC50 in test [1] and in test [2] were 1.4 µM and 0.04 µM, respectively.
On to `COC1=CC(=O)c2c(c(COC(=O)c3ccc(F)cc3)cn2C)C1=O`, for which the IC50 was found to be 0.7 µM in test [1] and 0.05 µM in test [2].
Regarding `COC1=CC(=O)c2c(c(COC(=O)c3ccccc3F)cn2C)C1=O`, the IC50 amounted to 0.5 µM in test [1] and 0.04 µM in test [2].
Regarding `COC1=CC(=O)c2c(c(COC(=O)c3ccccc3)c(C)n2C)C1=O`, the IC50 in test [1] is 16 µM; in test [2], 0.2 µM.
As to `COC1=CC(=O)c2c(c(COC(N)=O)c(C)n2C)C1=O`, the IC50 in test [1] was found to be 25 µM; in test [2], 0.3 µM.
Taken in the same sequence, the figures for `COC1=CC(=O)c2c(c(COc3ccc(F)cc3)c(C)n2C)C1=O` were 31 µM and 0.85 µM.
Turning to `COC1=CC(=O)c2c(c(CO)cn2C)C1=O`, the IC50 stood at 220 µM in test [1] and 240 µM in test [2].
Turning to `COC1=CC(=O)c2c(c(CO)c(C3CC3)n2C)C1=O`, the IC50 in test [1] is 540 µM; in test [2] it was 820 µM.
Taken in the same sequence, the figures for `COC1=CC(=O)c2c(c(CO)c(C)n2C)C1=O` were 1080 µM and 285 µM.
For `COC1=CC(=O)c2c(c(Cc3ccc(O)c(F)c3)c(C)n2C)C1=O`, the IC50 in test [1] stood at 470 µM; in test [2] it was 280 µM.
On the same counts, the results for `CCOC(=S)SCc1c2c(n(C)c1C)C(=O)C=C(OC)C2=O` are 67 µM and 3 µM.
On the same counts, the results for `COC1=CC(=O)c2c(c(COC(=O)c3ccccc3)c(C3CC3)n2C)C1=O` are 198 µM and 1 µM.
Take `COC1=CC(=O)c2c(c(COc3cccc(NC(C)=O)c3)c(C)n2C)C1=O`: the half-maximal inhibitory concentration (IC50) was determined as 3.7 µM in test [1] and 0.04 µM in test [2].
Regarding `COC1=CC(=O)c2c(c(COC(C)=O)c(C)n2C)C1=O`, the results for the IC50 in test [1] and in test [2] were 27 µM and 2.5 µM, respectively.
Take `COC1=CC(=O)c2c(c(COCc3ccccc3)c(C)n2C)C1=O`: the IC50 was 225 µM in test [1] and 410 µM in test [2].
Regarding `COC1=CC(=O)c2c(c(CCl)cn2C)C1=O`, the IC50 was determined as 304 µM in test [1] and 33 µM in test [2].
For the compound `COC1=CC(=O)c2c(c(COC(=O)Cc3ccc(-c4ccccc4)cc3)c(C)n2C)C1=O`, the IC50 was determined as 14.1 µM in test [1] and 0.66 µM in test [2].
In the case of `COC1=CC(=O)c2c(c(COc3c(Cl)cc(Cl)cc3Cl)cn2C)C1=O`, the IC50 in test [1] came out at 0.7 µM; in test [2], 0.08 µM.
Taken in the same sequence, the figures for `COC1=CC(=O)c2c(c(COC(=O)c3ccc(F)cc3)c(C)n2C)C1=O` were 27 µM and 0.3 µM.
Taken in the same sequence, the figures for `COC1=CC(=O)c2c(c(COc3ccccc3)c(C)n2C)C1=O` were 12 µM and 0.7 µM.

The values above are taken from ChEMBL document CHEMBL1131031, “Indolequinone antitumor agents: reductive activation and elimination from (5-methoxy-1-methyl-4,7-dioxoindol-3-yl)methyl derivatives and hypoxia-selective cytotoxicity in vitro” (J Med Chem, 1998).
